# Results taken from PMC12775124, “CUL4A-DDB1-DCAF10 is an N-recognin for N-terminally acetylated Src kinases” (Nature Communications, 2026).
# Like-named read-outs stand apart in the source and are kept apart here.
# Columns and labels:
# [1] = tested on: DCAF10; assay: Peptide pull-down with quantitative MS, HeLa lysate, DCAF10; assay type: binding, human (HeLa); conditions: for DCAF10 binding of Nt-mutant peptides (in words): n = 3 replicates; for DCAF10 binding of swap peptide vs its WT (in words): direct comparisons Ac-Lyn vs Ac-Lyn^swap and Ac-THOC7 vs Ac-THOC7^swap
# Procedure: Beads presenting 10-residue synthetic Nt-peptides of proteins of interest in their free (Nt-free) or modified (e.g., Nt-acetylated) versions were incubated with lysates from HeLa cells, followed by MS-based quantification of retained binders (Fig. 1a).
# Biotinylated 10-mer Nt-peptides (Nt-free, Nt-acetylated, and, where indicated, Nt-myristoylated; sequences in Supplementary Table 1) were synthesized with a C-terminal Lys3 spacer and biotin, immobilized on magnetic streptavidin beads, and incubated with HeLa or mouse liver lysates. After standardized washes, bound proteins were on-bead reduced/alkylated, digested with LysC/trypsin, desalted, and analysed by LC-MS in DIA mode (Orbitrap Exploris 480) as described previously[24]. Variants included endogenous Nt-sequences, swap and mutant (Ala-Ala-Ala or Nt-amino acids) peptides, and pairwise comparisons of conditions of interest.
# All MS experiments were performed as independent biological triplicates. Relative protein quantification was carried out using the label-free algorithm integrated in DIA-NN[53], and statistical testing was performed in Perseus using a two-sided Student’s t test with permutation-based multiple-testing-adjusted p-values[53],[54], as specified in the figure legends. […] Volcano blots were visualized with RStudio (version 2023.06.0). […] Cell experiments were performed as biological replicates, and binding assays as independent assays. […] Data are presented as mean ± s.d. Fold changes are reported as the ratio of the normalized value for the condition of interest to the normalized control value, with mean ± s.d. computed across biological replicates.
# [2] = target: T1, human NatA (Homo sapiens, UniProt P41227+Q9BXJ9); assay: In vitro Nt-acetylation assay (NatA, CPM fluorescence); assay type: biochemical
# T1 construct: Human NatA (hNatA) full-length (FL) was cloned; made in house; host or cells: Tnao38 insect cells (baculovirus, pFL vector)
# T1 sequence (P41227 1-235): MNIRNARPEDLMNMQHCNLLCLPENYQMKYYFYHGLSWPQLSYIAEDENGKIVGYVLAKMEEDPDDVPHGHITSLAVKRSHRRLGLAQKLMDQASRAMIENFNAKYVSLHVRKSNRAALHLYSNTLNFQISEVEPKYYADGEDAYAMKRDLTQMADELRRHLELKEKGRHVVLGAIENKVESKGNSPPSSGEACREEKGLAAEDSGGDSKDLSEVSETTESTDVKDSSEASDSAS
# T1 sequence (Q9BXJ9 1-866 partner): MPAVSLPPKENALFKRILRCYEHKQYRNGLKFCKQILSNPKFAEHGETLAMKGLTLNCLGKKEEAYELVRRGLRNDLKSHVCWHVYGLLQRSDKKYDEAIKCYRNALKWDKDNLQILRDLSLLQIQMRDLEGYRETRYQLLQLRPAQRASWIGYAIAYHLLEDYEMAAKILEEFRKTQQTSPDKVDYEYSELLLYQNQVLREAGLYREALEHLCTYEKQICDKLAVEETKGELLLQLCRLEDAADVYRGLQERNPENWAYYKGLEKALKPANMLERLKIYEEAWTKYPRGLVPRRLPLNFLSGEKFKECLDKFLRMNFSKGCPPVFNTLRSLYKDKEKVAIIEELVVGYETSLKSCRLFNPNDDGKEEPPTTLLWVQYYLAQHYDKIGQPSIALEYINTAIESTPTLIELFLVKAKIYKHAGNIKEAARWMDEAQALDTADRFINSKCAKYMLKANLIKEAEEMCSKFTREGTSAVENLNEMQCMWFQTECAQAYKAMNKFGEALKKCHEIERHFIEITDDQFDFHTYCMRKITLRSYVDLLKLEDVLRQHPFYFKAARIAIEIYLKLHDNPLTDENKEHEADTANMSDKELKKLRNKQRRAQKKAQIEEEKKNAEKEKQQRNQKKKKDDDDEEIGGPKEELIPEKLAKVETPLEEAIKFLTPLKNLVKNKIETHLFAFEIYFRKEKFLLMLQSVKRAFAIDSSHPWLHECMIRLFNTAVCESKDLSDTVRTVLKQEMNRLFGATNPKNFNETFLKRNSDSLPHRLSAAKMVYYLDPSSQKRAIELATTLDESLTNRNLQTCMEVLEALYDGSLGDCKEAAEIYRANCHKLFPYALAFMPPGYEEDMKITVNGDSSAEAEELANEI
# Procedure: Gly-starting proteins can be substrates of the Nt-acetyltransferase NatA[3],[21]. Having established direct DCAF10 binding to Ac-Gly N-termini, we next asked whether SFK N-termini are bona fide NatA substrates. We developed an in vitro Nt-acetylation assay comprising purified NatA, acetyl-CoA (Ac-CoA), and the peptide of interest (Fig. 3a, b)[33]. Acetyl-group transfer was assessed using CPM [7-(diethylamino)−3-(4′-maleimidophenyl)−4-methylcoumarin], which reacts specifically with free thiol groups to produce a highly fluorescent product (excitation: 390 nm; emission: 479 nm), allowing detection of CoA production after acetyl-group transfer to the peptide (Supplementary Fig. 4e). We optimized the conditions to determine Michaelis–Menten kinetics for NatA-mediated Nt-acetylation with a target peptide ([…]) previously used for NatA assays and co-crystallization (Supplementary Fig. 4f)[34]. […] Likely, this was due to a Km even higher than that of Src, and implying that the peptide concentrations in the assay might have been insufficient for the reaction to proceed with an appreciable rate. […] Negative controls (COX17 and Ac-Lyn) produced low signals. […] Given the direct association of NatA with SFK N-termini at the ribosomal exit tunnel, however, we surmise that Nt-acetylation of SFKs in cells may proceed despite these unfavorable kinetic parameters.
# The assay was performed essentially as described previously. Briefly, peptide substrates (Supplementary Table 1) were incubated with purified human NatA and acetyl-CoA; acetylation was quantified by CPM fluorescence (CoA detection), and Michaelis–Menten parameters were derived from 8-point 1:1 dilution series within the linear range (n = 4 independent enzymatic assays). Full buffer compositions, reagent concentrations, plate format, instrument settings, controls, and fitting procedures are provided in the Supplementary Methods and Tables. […]
# 301 Cloning, expression, and purification of human NatA
# 302 Human NatA (hNatA) full-length (FL) was cloned in a pFL vector expressing both
# 303 genes, NAA15 with a 6× C-term histidine tag (NAA15-6xHIS) and NAA102. The
# 304 expression was carried out in insect cells (Tnao38) for 72 h infected 1:20 with
# 305 baculovirus. Washed cell pellets were lysed by sonication in a lysis buffer containing 200
# 306 mM NaCl, 50 mM HEPES pH 8.0, 20 mM Imidazole, and 2 mM TCEP. The protein
# 307 purification was performed as a three-step purification, starting with an affinity nickel
# 308 column, followed by an ion-exchange column with a gradient of 50–300 mM NaCl, and
# 309 finished with size exclusion chromatography (SEC) using an S200 10/300 column. The
# 310 main peaks were collected, and the protein was concentrated in the SEC buffer (150 mM
# 311 NaCl, 50 mM HEPES pH 8.0, 1 mM EDTA). The purified hNatA was flash-frozen in
# 312 liquid nitrogen and stored at -80°C.
# 314 In vitro Nt-acetylation assay
# 315 The method has been described in detail previously2. Briefly, different peptides
# 316 (Supplementary Table 1) and concentrations (an eight-step, 1:1 dilution series for
# 317 Michaelis-Menten curves) as indicated were incubated with 20 nM hNatA and 80 µM Ac-
# 318 CoA in reaction buffer (50 mM HEPES pH 8.0, 0.5 mM EDTA, 0.005% CHAPS) for 60
# 319 (Src) or 120 min (Lyn), at RT in a 384-well microplate (Corning 4514) (n = 4).
# 320 Afterwards, the enzymatic reaction was stopped by adding 1:1 DMSO with 10 µM (final
# 321 concentration 5 µM) of the thiol reactive CPM (7-Diethylamino-3-
# 322 (4'Maleimidylphenyl)4-Methylcoumarin). After 1 h at RT, the readout was performed
# 323 with a Tecan Spark® Multimode Microplate Reader (excitation 390 nm, emission 479
# 324 nm). Background values at 0 µM peptide were subtracted, and control reactions omitting
# 325 NatA or Ac-CoA were performed. Dilution series of CoA incubated with 5 µM CPM were
# 326 used to generate a linear equation (y = 10.99*x + 81.06) to calculate acetylation velocities
# 327 for NatA-mediated peptide acetylation. […]
# [3] = 20 nM NatA, 80 µM Ac-CoA, pH 8.0, RT, 60 min, CPM fluorescence 390/479 nm, mean ± s.d., n = 4, read-out: Km
substance,measurement,setting,value
"ACIKSKGKDSKK [Ac-Lyn^G2A, Ac-Ala mutant Nt-peptide of Lyn]","DCAF10 interaction, fold lower relative to Ac-Gly peptide","[1]; Ac-Ala (Ac-Lyn^G2A) vs Ac-Gly (Ac-Lyn^WT), HeLa lysate",15 fold
same,DCAF10 binding of Nt-mutant peptides (in words),[1],only identified in 2 of 3 replicates
"GAVKSKEVIRKK [Ac-THOC7^swap, THOC7 peptide carrying Lys5-Ser6-Lys7 of Lyn]",Reversal of preference after swapping positions 5–7,[1]; Ac-Lyn^swap vs Ac-THOC7^swap relative to WT comparison,~ 133 fold
same,DCAF10 binding of swap peptide vs its WT (in words),[1]; HeLa lysate,increased binding
"GCIAAAGKDSKK [Ac-Lyn^AAA, Ala5-Ala6-Ala7 mutant of Lyn peptide]","log₂ difference, Ac-Lyn^WT vs Ac-Lyn^AAA, DCAF10","[1]; HeLa lysate, n = 3",−0.41
"GCIKSKENKSKK [Ac-Yes, Nt-peptide of Yes, Nt-acetylated]",DCAF10 binding (in words),"[1]; HeLa lysate, Nt-Ac vs Nt-free peptides",bound to DCAF10
"GCITDDGKDSKK [Ac-Lyn^swap, Lyn peptide carrying Thr5-Asp6-Asp7 of THOC7]","log₂ difference Ac-Lyn^swap vs Ac-THOC7^swap, DCAF10","[1]; HeLa lysate, n = 3",−1.23
same,DCAF10 binding of swap peptide vs its WT (in words),[1]; HeLa lysate,significantly reduced
"GSNKSKPKDAKK [Myr-Src, Nt-peptide of Src, N-myristoylated]","DCAF10 binding, Nt-Ac vs Nt-Myr (in words)",[1]; HeLa lysate,no detectable DCAF10 binding
"GSNKSKPKDAKK [Nt-free Src, Nt-peptide of Src, Nt-free]",Km,[2]; [3],144 ± 24 µM
same,Km,"[2]; conclusion: poor NatA substrates, read-out: Km, summary statement",> 100 µM
same,Km,"[2]; rounded values in Peer Review File, read-out: Km, as given in rebuttal",143 µM
NatA target peptide: target peptide previously used for NatA assays and co-crystallization (SASEAGVRWG) [reference compound],Km,[2]; [3],8.4 ± 1.7 µM
"PCIKSKGKDSKK [Lyn^G2P, Nt-free Pro mutant Nt-peptide of Lyn]",DCAF10 binding of Nt-mutant peptides (in words),[1],failed to bind DCAF10 in all replicates
"PGLVDSNPAPKK [COX17, Pro-starting peptide from COX17, negative control, reference compound]",Nt-acetylation by NatA (in words),"[2]; original assay, peptide up to 160 μM",no detectable acetylation
same,Nt-acetylation by NatA (in words),[2]; starting peptide concentration 1 mM,low signals
